Experimental data published in PMC8729174 (RSC Chemical Biology, 2021).

Tests used:
[1] = biological target: sstr2; conditions: read-out: Kd for sstr2; cited from earlier work
[2] = tested on: Ar42J cells; assay: Cell death kinetics; format: cell-based, rat; conditions: MTS, n = 3, 6 at 60 nM, α-amanitin 1 at 10 μM
[3] = tested on: sstr2-negative CHO cell line; conditions: read-out: IC50 on CHO cells; cited from earlier work

Row | Substance | Kd [1] [nM] | cell viability after 24 hours of incubation (in words) ([2]; 24 h) | cell viability after 48 hours of incubation (in words) ([2]; 48 h) | IC50 [3] [nM]
1 | octreotate [compound 2] | ~0.4 |  |  | 
2 | α-amanitin [compound 1] |  | remained fully viable | loss of cell viability was only observed after 48 hours | 300 to 700
3 | N-propargyl-dideoxy-amanitin [compound 4] |  |  |  | 1000 to 2000
